Experimental data reported in PubChem BioAssay AID179 (DTP/NCI, 2004).
Calls of active or inactive are those of the source.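 The calls were made as follows: active = compounds giving half or more protection of infected cells from virus-caused growth loss, again on retest; inactive = the rest.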

Test system: CEM cells HIV-1 protection, formazan growth assay
Assay: NCI AIDS Antiviral Assay
Conditions: for IC50: measured here: growth of uninfected CEM cells
Method in brief: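 Steps: treat uninfected and HIV-1-infected human CEM cells at five drug levels; quantify growth by soluble formazan; retest any compound reaching 50% protection; classify actives from the retest.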

Compound	EC50	IC50	outcome
CCOC(=O)c1nc2ccc(C(F)(F)F)cc2nc1Nc1ccc(OC)c(OC)c1	> 200 µM	> 200 µM	–
Cc1ccc2c(c1)SSc1ccc(C)cc1SS2	> 200 µM	110 µM	–
O=C(O)/C=N\Nc1nc2ccccc2[nH]1	> 200 µM	> 200 µM	–
CCn1c2c(n(CC)c1=S)-c1c(n(CC)c(=S)n1CC)SSSS2	> 58.9 µM	> 58.9 µM	–
CN1C(=O)C(O)(Cc2nccc3ccccc23)c2ccccc21 (stereo not given)	> 200 µM	36.3 µM	–
O=C(/C=C/c1ccc(Cl)cc1)c1ccc(Cl)s1	> 200 µM	–	–
O=[N+]([O-])c1ccc(C2=Cc3ccc4ccccc4[n+]3NC2)cc1	> 50.1 µM	> 50.1 µM	–
CC(C)(C)C1CCC2c3c([nH]c4ccccc34)C3C(=O)N(c4ccccc4)C(=O)C3C2C1 (stereo not given)	–	–	inactive
O=C(/C=C/C1C(=O)NC(=O)NC1=O)CC(=O)C(=O)Nc1cc(Cl)c(Cl)cc1Cl	> 209 µM	> 209 µM	–
Cc1cc[n+](C2=C([O-])C3=C(C(=O)C2=O)C2c4ccccc4C3c3ccccc32)c(C)c1	> 33.9 µM	31.6 µM	–
CCOC(=O)C(=O)C(/C(=N/N(C)C)C(=O)Nc1ccc(C)cc1C)c1nc2ccccc2[nH]c1=O (stereo not given)	> 380 µM	219 µM	–
Cc1n[nH]c(=O)n1N1C(=O)CCCC1=O	> 200 µM	> 200 µM	–
COC(=O)C(C)NC(=O)c1ccccc1SC(=O)CCCC[n+]1ccccc1 (stereo not given)	> 200 µM	2.4 µM	–
COC(=O)c1ccc(CSc2ccccc2C(=O)OC)cc1	> 22.9 µM	19.1 µM	–
CC(CCC(=O)O)[C@H]1CCC2[C@H]3C(CC[C@@]21C)[C@@]1(C)CCC(O)C[C@H]1C[C@@H]3O (stereo not given in full)	> 200 µM	> 100 µM	–
COc1ccc2c(C)cc(=O)oc2c1	> 200 µM	> 200 µM	–
COCC12CCC(OC)C34C5CC6(O)C(OC)CC(OC(C)=O)(C5C6OC(=O)c5ccccc5)C(C(OC)C13)C4N(C)C2 (stereo not given)	–	–	inactive
NC(=O)C(=CN1C(=O)/C(=C/c2ccc([N+](=O)[O-])cc2)SC1=S)C(N)=O	> 200 µM	30.2 µM	–
CC1=Cc2cc3[n-]c(cc4nc(cc5[n-]c(cc1n2)c(C)c5CCC(=O)O)C(CCC(=O)O)=C4C)cc3C.[Cu+2]	> 8.71 µM	7.59 µM	–
NC(=O)NNC(=O)CCn1[nH]c(=O)c(Cl)c(Cl)c1=O	–	–	inactive
O=C(CCCNC(=O)OCc1ccccc1)OCc1ccc2c(c1)C(=O)c1ccccc1C2=O	> 200 µM	> 200 µM	–
O=C1CS(=O)c2ccccc2N1 (stereo not given)	> 372 µM	> 372 µM	–

Compound	EC50	IC50	outcome
CCC1C(c2ccccc2O)c2cc3c(cc2OC1N1CCOCC1)OCO3 (stereo not given)	> 200 µM	22.4 µM	–
C/C(=N\NC(=S)NCCNC(=S)N/N=C(\C)c1ccccn1)c1ccccn1	> 200 µM	3.39 µM	–
CCC12C=CCN3CC[C@@]4(c5cc([C@@]6(C(=O)OC)CC7CN(C[C@]8(CC)OC78)[C@H](CC(C)=O)Cc7c6[nH]c6ccccc76)c(OC)cc5N(C)[C@H]4[C@@](O)(C(=O)OC)[C@@H]1OC(C)=O)[C@H]32 (stereo not given in full)	–	–	inactive
CCn1c(O)c(C=Nc2ccccc2)s/c1=N/Nc1ncc(CC(=O)Nc2ccccc2C)s1	> 200 µM	170 µM	–
COc1cc2c3c(c1)[nH]c(=S)n3C(=O)C(c1ccccc1)S2 (stereo not given)	> 200 µM	40.7 µM	–
O=C(O)c1[nH]c(=O)[nH]c(=O)c1I	> 200 µM	> 200 µM	–
COC1OC2COc3ccccc3OC2C(NC#N)C1OC (stereo not given)	> 145 µM	28.8 µM	–
CC1(C)OCC(C2OC(=O)C(OCc3ccccc3)=C2OCc2ccccc2)O1 (stereo not given)	> 200 µM	> 200 µM	–
Cc1ccc(S(=O)(=O)N/N=C2\C3CC4CC(C3)C2C4)cc1 (stereo not given)	> 200 µM	95.5 µM	–
COc1ccc(Nc2nnc(-c3nsc4ccccc34)s2)cc1	> 21.4 µM	> 21.4 µM	–
CC1(C)CC(=O)C2=C(C1)C(c1ccccc1Cl)C1C(=O)CC(C)(C)CC1(O)O2 (stereo not given)	> 200 µM	28.8 µM	–
COC(=O)C1=C(\O)C[C@@]2(C)CC[C@@H](C(=O)OC)C2C/C=C\1C(=O)OC (stereo not given in full)	–	–	inactive
Cc1cc(Cl)ccc1NC(=O)/C(Cc1nc2ccc(C(=O)c3ccccc3)cc2[nH]c1=O)=N/NC(=O)c1ccncc1	> 224 µM	75.9 µM	–
CC1(Br)C(=O)C(O)=C(Br)C1=O (stereo not given)	> 200 µM	19.5 µM	–
CCN(CC)C(=S)SNCCc1ccc(S(N)(=O)=O)cc1	> 200 µM	10.5 µM	–
COC(=O)CC(C(C(=O)OC)C(=O)OC)N1C(=O)OCC1c1ccccc1 (stereo not given)	> 135 µM	> 135 µM	–
CSc1nnc2nc[nH]n12	> 200 µM	> 200 µM	–
O=C(O)c1ccc(C2SCc3nc4ccccc4n32)cc1 (stereo not given)	> 200 µM	> 200 µM	–
c1ccc2c(c1)Nc1nc3ccccc3nc1N2	> 100 µM	> 100 µM	–
O=C1C/C(=C\O)C(=O)c2ccccc2N1	0.186 µM	> 200 µM	–
O=C(COc1ccc(/C=C/C(=O)c2ccc(Cl)cc2)cc1)Nc1c(Cl)cccc1Cl	> 40.7 µM	> 40.7 µM	–
